Reference: patent publication US7468186B2, “Polyomavirus cellular epitopes and uses therefor” (priority 2005, dated 2008)
Several values for one entry are separate records, joined by “and”; a condition that tells them apart may be missing. Equal entries are not always repeated. Ends that are not written are not given here.

Experiments:
[1] = tested on: Jurkat A2.1 cells pulsed with peptide
[2] = tested on: splenocytes (CD8+ T cells); assay type: cell-based, HHD-II transgenic mice
[3] = tested on: CD8+ T lymphocytes of PBMC; test: In vitro stimulation of human PBMC with peptide and rIL-2, then tetramer reagent labeling and flow analysis
HLA-A*02 = biological target: T1, HLA-A*02 (Homo sapiens, UniProt P04439, D140Y/D185E/D98H/E176V/E277Q/G131W/G231S/I119V/I121R/I166T/I218V/L300P/L318F/N151K/N90K/P208A/P217A/Q86G/Q94H/R138H/R169H/T345S); test: T2 stabilization/HLA-A*02 binding assay (flow cytometry of surface HLA-A2 on peptide-pulsed T2 cells); details: peptide-pulsed TAP-deficient T2 cells, FIG. 1
T1 construct: Levels of surface HLA-A2 were measured by staining peptide-pulsed T2 cells with a fluorescent-labeled antibody to HLA-A2; endogenous in cells; host or cells: T2 cells (TAP-deficient)

[4] = IVS with JCVp100, healthy HLA-A2 donors
[5] = healthy HLA-A2 volunteers, summary of Table IV
[6] = kidney transplant patient KTx#02 PBMC, two weeks with peptide and IL-2, percentage of CD8+ lymphocytes, FIG. 12
[7] = IVS with BKVp44, healthy HLA-A2 donors

## LLMWEAVTV [BK108]
[1]
  result of cytotoxicity and ICC assays: positive results

## ILMWEAVTL [JC100]
[2]
  cells producing IFN-γ in response to peptide: 17.29% and 22.2%
[3]; IVS with JCVp100, double tetramer labeling
  BOTH (tetBKVp108 and tetJCVp100): 0 (6×) and 0.26 and 5.17 and 0.04 and 4.3 and 0.9
[3]; [4]
  % tetBKVp108: 0.04% (2×) and 0.05% and 0% (9×) and 0.16% and 0.06% and 0.48% and 4.59% and 0.13% and 5.1% and 0.03% and 0.8%
  % tetJCVp100: 0.02% and 0% (11×) and 0.28% and 0.59% and 3.5% and 0.09% and 1.36% and 5.1% and 0.08% and 1.05%
[3]; [5]
  individuals positive for staining with the BK108 tetramer reagent after in vitro stimulation: 5 of 20
[3]; kidney transplant patient KTx#02 PBMC after in vitro stimulation, FIG. 13
  tetramer reagent binding cells that bound both the BKV and JVC tetramer reagents: 63%
[3]; [6]
  cells binding the BKV tetramer reagent after in vitro stimulation: 4.4%
  cells binding the JVC tetramer reagent after in vitro stimulation: 3.7%
[1]
  recognition by transgenic murine CTL expanded with BK108: recognized

## AITEVECFL (Polyomavirus hominis 1) [BK44]
[2]
  IFN-γ secretion by CD8+ cells on peptide stimulation: induced the secretion of IFN-γ by CD8^+ cells
[3]; IVS with BKVp44, double tetramer labeling
  BOTH (tetBKVp44 and tetJCVp36): 1.79 and 0.02 and 5.7 and 0 (8×) and 0.17 and 13.2 and 2.63 and 3.38 and 0.1 and 6.1
[3]; [7]
  % tetBKVp44: 1.89% and 0% (5×) and 6.2% and 0.33% and 0.13% and 14.7% and 3.14% and 3.78% and 0.1% and 0.07% and 6.7% and 0.01% and 0.63%
  % tetJCVp36: 1.72% and 0.01% and 6.6% and 0% (4×) and 0.7% and 0.08% and 0.04% and 15% and 3.07% and 3.65% and 0.1% and 0.07% and 6.2% and 0.05%
[3]; [5]
  individuals with cells positively stained by the BK44 tetramer reagent after in vitro stimulation: 8 of 17
  individuals with cells positively stained by the JC36 tetramer reagent after in vitro stimulation: 8 of 17
[1]
  recognition by transgenic murine CTL expanded with BK44: recognized

## ILKEPVNGV [control HIV peptide]
[2]
  cells producing IFN-γ in response to peptide: 1.94% and 3.2%
  proportion of cells responding with IFN-γ production: 0.35%

## SITEVECFL [JC36]
[1]
  recognition by transgenic murine CTL expanded with BK44: recognized

## NLLMWEAVTV [BK107]
[1]
  result of cytotoxicity and ICC assays: positive results

## LLIKGGVEV (Polyomavirus hominis 1) [BK27b]
HLA-A*02
  HLA-A2 binding (increase in relative fluorescence intensity on T2 cells): highest binding function
